One experiment concerns ACC2. Particulars: ACC2 isolated from rat, mouse, monkey and human; cited from earlier work.
In the next experiment the test system is ACC1. Particulars: ACC1 isolated from rat, mouse, monkey and human; cited from earlier work.
Experiment [1] relates to Phytophthora capsici (Pc). The experiment can be described thus: Growth inhibition assay of fungal pathogens, Pc. In kind it is cell-based. The conditions noted are these: 48 h. In outline: (§1)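 Inhibition percentages reflect 48 h OD600 and visual scores relative to a 2% DMSO control. Test concentrations were 50, 10, 2 ppm or 2, 0.4, 0.08 ppm final, applied to spores in 17% V8 medium.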

In the next experiment the test system is Botrtyis cinerea (Bc). Kind of experiment: Growth inhibition assay of fungal pathogens, Bc. The class given is cell-based. The conditions noted are these: 48 h, growth inhibition at 48 hours vs 2% DMSO control. The procedure, abridged: as §1
Another experiment addresses human (hACC2) (Homo sapiens, UniProt O00763). The experiment can be described thus: In vitro ACC inhibition assay (ADP-Glo), hACC2. Particulars: Table 2b, additional results, 5 nM ACC2, 20 μM ATP, 20 μM acetyl-CoA. The class given is biochemical. On the procedure: The detailed procedure is as follows. […] 10 μL ADP glo reagent was added. […] 20 μL kinase detection reagent was added.
On the technique in general: ADP-Glo turns the ADP formed in a reaction into a luminescent signal.

The test system of a further experiment is Rhizoctonia solani (Rs). The experiment can be described thus: Growth inhibition assay of fungal pathogens, Rs. In kind it is cell-based. The conditions noted are these: 48 h.
In the next experiment the test system is C. albicans. The experiment can be described thus: Antifungal Activity Assay (broth microtiter MIC), C. albicans. The conditions noted are these: Candida albicans, ATCC90028, 48 h. In kind it is cell-based, Candida albicans. The procedure, abridged:
(§2)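 Colonies from 24 h Sabouraud dextrose agar plates (35° C) are suspended in RPMI 1640+MOPS and diluted to give 2.5×10^3 CFU/mL in the wells. Plates are set up per CLSI M27-A3. Visual MIC is recorded at 48 h.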

The test system of another experiment is C. krusei. Kind of experiment: Antifungal Activity Assay (broth microtiter MIC), C. krusei. The class given is cell-based, Candida krusei. Particulars: Pichia kudriavzevii, ATCC6258, 48 h. In outline: as §2
The next experiment deals with C. parapsilosis. Kind of experiment: Antifungal Activity Assay (broth microtiter MIC), C. parapsilosis. In kind it is cell-based, Candida parapsilosis. The conditions noted are these: Lodderomyces parapsilosis, ATCC22019, 48 h. In outline: as §2
The subject of experiment [2] is Fusarium virguliforme (Fv). The experiment can be described thus: Growth inhibition assay of fungal pathogens, Fv. Particulars: 48 h. In kind it is cell-based. The procedure, abridged: as §1
The test system of experiment [3] is Collectotrichum graminicola (Cg). Kind of experiment: Growth inhibition assay of fungal pathogens, Cg. The conditions noted are these: 48 h, growth inhibition at 48 hours vs 2% DMSO control. In kind it is cell-based. In outline: as §1
The next experiment deals with fungal (fACC2) (UniProt Q00955). Particulars: read-out: fACC2 (in vitro ACC2 Inhibition Assay, IC50); Table 2b, additional results; ADP-Glo, 5 nM ACC2, 20 μM ATP, 20 μM acetyl-CoA.
In experiment [4] the test system is Fusarium moniliforme (Fm). Kind of experiment: Growth inhibition assay of fungal pathogens, Fm. The conditions noted are these: Fusarium verticillioides, 48 h, read-out: Concentration at 90% Inhibition Fm. In kind it is cell-based. The procedure, abridged:
as §1

The test system of the next experiment is Diplodia maydis (Dm). The experiment can be described thus: Growth inhibition assay of fungal pathogens, Dm. In kind it is cell-based. The conditions noted are these: Stenocarpella maydis, 48 h, growth inhibition at 48 hours vs 2% DMSO control. The procedure, abridged: as §1
A further experiment relates to Septoria tritici (St). Kind of experiment: Growth inhibition assay of fungal pathogens, St. The class given is cell-based. Particulars: Zymoseptoria tritici, 48 h, growth inhibition at 48 hours vs 2% DMSO control. In outline: as §1
Setting [5] is: read-out: Concentration at 90% Inhibition Pc, Phytophthora capsici, growth inhibition at 48 hours vs 2% DMSO control.
The mark [6] stands for this setting: read-out: Concentration at 90% Inhibition Bc, Botrtyis cinerea.
Setting [7] is: read-out: Concentration at 90% Inhibition Rs, Rhizoctonia solani, mycelial plugs, growth inhibition at 48 hours vs 2% DMSO control.
Where [8] appears, read: read-out: MIC, C. albicans ATCC 90028, Table 3b (additional results), 3 replicates, MIC recorded at 48 h.
Setting [9] is: read-out: MIC, C. krusei ATCC 6258, Table 3b (additional results), 3 replicates, MIC recorded at 48 h.
Where [10] appears, read: read-out: MIC, C. parapsilosis ATCC 22019, Table 3b (additional results), 3 replicates, MIC recorded at 48 h.
The mark [11] stands for this setting: read-out: Concentration at 90% Inhibition Fv, Fusarium virguliforme, growth inhibition at 48 hours vs 2% DMSO control.
Setting [12] is: read-out: Concentration at 90% Inhibition Cg, Collectotrichum graminicola.
[13] abbreviates: read-out: Concentration at 90% Inhibition Dm, Diplodia maydis.
Where [14] appears, read: read-out: Concentration at 90% Inhibition St, Septoria tritici.
The mark [15] stands for this setting: growth inhibition at 48 hours vs 2% DMSO control, read-out: Concentration at 90% Inhibition Pc.
The mark [16] stands for this setting: Botrtyis cinerea, read-out: Concentration at 90% Inhibition Bc.
[17] abbreviates: mycelial plugs, growth inhibition at 48 hours vs 2% DMSO control, read-out: Concentration at 90% Inhibition Rs.
Setting [18] is: Table 3b (additional results), ATCC 90028, 3 replicates, MIC recorded at 48 h, read-out: MIC, C. albicans ATCC 90028.
Setting [19] is: Table 3b (additional results), ATCC 6258, 3 replicates, MIC recorded at 48 h, read-out: MIC, C. krusei ATCC 6258.
The mark [20] stands for this setting: Table 3b (additional results), ATCC 22019, 3 replicates, MIC recorded at 48 h, read-out: MIC, C. parapsilosis ATCC 22019.
The mark [21] stands for this setting: growth inhibition at 48 hours vs 2% DMSO control, read-out: Concentration at 90% Inhibition Fv.
The mark [22] stands for this setting: Collectotrichum graminicola, read-out: Concentration at 90% Inhibition Cg.
[23] abbreviates: Fusarium moniliforme, growth inhibition at 48 hours vs 2% DMSO control.
[24] abbreviates: Diplodia maydis, read-out: Concentration at 90% Inhibition Dm.
The mark [25] stands for this setting: Septoria tritici, read-out: Concentration at 90% Inhibition St.

≈ marks a conversion by molar mass, not a printed value. Read-outs that look alike come from different tables or passages of the source.

One may read the IC50 as the concentration needed to halve the response being measured. For orientation: MIC means the least concentration at which growth counts as inhibited.

Sequence of fungal (fACC2) (Q00955 whole entry): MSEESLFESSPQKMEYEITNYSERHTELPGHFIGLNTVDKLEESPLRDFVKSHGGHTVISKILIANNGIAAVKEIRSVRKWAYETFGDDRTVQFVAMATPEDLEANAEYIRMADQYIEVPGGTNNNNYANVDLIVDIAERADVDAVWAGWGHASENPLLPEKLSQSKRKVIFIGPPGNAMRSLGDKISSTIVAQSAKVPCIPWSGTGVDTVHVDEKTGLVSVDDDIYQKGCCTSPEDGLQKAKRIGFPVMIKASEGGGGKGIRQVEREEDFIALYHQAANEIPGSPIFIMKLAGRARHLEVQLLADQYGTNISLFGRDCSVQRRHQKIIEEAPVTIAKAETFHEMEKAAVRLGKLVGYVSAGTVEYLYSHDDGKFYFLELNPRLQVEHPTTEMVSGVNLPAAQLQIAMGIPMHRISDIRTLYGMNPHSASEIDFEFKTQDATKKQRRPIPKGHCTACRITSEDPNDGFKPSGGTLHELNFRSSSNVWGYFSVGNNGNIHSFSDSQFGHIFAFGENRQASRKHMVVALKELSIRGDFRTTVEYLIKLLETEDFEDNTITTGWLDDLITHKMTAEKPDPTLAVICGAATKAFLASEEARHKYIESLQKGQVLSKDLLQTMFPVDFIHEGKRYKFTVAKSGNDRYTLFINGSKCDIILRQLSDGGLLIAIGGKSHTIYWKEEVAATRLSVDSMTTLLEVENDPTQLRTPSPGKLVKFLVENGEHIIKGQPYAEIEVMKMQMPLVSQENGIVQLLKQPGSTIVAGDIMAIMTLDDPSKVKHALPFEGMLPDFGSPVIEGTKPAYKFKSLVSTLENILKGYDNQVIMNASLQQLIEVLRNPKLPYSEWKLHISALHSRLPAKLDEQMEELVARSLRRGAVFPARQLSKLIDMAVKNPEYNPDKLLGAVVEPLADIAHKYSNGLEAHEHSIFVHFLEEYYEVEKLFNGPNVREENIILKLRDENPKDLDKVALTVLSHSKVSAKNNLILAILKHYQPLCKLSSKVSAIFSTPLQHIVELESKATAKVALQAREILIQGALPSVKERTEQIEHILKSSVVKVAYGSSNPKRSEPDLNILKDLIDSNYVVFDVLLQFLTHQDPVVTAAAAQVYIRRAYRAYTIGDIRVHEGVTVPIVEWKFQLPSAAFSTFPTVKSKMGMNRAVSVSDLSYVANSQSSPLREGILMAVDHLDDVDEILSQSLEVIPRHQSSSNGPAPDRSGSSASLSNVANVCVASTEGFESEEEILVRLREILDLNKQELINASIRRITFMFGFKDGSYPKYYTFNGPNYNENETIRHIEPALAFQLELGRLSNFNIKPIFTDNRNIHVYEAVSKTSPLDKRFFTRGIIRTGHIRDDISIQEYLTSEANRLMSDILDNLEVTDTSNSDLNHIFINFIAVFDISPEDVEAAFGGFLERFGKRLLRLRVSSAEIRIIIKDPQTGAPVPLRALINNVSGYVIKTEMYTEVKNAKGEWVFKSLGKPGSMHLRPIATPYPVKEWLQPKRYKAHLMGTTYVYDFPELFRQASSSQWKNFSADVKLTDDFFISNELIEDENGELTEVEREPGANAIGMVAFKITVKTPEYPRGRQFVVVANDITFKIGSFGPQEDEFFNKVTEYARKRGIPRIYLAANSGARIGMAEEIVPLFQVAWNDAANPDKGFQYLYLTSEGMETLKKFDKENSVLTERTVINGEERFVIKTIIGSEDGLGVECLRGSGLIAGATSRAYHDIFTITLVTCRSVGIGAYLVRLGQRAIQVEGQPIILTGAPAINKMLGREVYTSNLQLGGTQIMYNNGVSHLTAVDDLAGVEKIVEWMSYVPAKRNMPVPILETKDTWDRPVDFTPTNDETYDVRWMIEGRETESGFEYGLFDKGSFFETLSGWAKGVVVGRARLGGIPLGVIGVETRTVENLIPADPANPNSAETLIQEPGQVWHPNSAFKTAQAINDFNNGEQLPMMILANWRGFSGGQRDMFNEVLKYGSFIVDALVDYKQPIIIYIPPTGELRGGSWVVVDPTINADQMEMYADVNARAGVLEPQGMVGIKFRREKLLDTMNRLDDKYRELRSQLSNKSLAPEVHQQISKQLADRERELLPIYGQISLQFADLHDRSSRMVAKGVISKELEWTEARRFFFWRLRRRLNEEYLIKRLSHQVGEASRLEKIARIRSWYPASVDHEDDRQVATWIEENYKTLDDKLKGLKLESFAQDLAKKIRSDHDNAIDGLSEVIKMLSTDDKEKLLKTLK
Sequence of human (hACC2) (O00763 whole entry): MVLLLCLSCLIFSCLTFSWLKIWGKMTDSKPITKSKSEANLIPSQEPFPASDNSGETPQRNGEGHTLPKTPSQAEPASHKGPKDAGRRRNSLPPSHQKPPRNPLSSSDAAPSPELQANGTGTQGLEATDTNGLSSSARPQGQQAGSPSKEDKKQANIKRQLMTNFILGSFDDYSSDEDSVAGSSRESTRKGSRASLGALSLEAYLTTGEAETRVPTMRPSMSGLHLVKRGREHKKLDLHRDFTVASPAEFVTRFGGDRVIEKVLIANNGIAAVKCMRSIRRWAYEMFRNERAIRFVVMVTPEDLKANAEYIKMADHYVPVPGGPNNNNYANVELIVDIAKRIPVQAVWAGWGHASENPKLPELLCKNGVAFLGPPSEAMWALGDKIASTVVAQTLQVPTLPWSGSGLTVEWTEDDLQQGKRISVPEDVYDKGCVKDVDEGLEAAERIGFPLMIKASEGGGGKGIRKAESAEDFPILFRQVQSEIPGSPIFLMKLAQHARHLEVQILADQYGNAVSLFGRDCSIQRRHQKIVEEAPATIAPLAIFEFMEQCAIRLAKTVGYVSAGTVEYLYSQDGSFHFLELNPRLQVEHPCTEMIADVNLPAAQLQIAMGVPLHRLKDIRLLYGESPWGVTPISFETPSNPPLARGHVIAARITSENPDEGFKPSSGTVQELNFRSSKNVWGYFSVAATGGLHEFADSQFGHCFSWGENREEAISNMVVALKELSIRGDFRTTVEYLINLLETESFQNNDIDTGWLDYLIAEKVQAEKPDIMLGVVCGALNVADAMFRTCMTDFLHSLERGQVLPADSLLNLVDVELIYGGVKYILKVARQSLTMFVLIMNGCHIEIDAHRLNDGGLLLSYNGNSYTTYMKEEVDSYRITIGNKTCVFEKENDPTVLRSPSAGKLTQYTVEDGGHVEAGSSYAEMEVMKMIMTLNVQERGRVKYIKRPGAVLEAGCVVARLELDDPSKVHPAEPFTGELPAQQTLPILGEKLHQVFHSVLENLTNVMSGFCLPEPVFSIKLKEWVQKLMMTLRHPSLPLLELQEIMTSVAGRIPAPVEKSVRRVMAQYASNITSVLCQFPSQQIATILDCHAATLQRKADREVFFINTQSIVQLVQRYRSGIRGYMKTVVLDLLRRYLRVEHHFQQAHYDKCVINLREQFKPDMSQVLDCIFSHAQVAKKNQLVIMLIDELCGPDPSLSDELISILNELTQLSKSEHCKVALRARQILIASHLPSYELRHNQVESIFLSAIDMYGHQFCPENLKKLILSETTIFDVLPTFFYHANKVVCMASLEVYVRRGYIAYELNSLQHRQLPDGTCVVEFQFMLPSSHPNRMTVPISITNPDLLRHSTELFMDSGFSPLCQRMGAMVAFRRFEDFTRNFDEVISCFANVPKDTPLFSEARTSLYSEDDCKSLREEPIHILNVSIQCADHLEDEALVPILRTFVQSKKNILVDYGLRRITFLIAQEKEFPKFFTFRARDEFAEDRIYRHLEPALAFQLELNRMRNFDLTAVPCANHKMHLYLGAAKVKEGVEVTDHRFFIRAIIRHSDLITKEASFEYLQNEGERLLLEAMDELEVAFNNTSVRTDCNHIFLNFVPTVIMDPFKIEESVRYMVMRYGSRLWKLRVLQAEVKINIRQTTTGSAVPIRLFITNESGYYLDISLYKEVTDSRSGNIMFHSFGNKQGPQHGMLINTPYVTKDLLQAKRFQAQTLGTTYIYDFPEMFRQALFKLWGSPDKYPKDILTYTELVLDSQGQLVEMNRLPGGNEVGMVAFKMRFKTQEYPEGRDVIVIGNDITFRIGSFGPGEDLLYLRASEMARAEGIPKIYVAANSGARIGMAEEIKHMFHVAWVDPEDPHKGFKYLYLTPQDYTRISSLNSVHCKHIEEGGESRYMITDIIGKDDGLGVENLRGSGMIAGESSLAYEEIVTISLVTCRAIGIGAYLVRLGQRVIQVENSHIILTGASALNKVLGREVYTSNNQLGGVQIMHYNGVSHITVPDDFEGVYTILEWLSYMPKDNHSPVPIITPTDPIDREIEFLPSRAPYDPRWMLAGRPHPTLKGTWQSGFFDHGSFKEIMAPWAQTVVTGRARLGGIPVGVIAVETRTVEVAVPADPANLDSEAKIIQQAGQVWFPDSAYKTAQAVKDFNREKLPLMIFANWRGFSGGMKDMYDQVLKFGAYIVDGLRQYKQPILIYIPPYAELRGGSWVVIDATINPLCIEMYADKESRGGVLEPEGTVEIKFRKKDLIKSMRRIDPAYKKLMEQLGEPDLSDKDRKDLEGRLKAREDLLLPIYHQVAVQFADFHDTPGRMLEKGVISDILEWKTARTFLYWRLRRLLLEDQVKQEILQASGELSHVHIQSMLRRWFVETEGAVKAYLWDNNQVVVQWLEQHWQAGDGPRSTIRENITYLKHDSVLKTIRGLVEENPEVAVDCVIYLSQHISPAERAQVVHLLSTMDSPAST

With `O=C(c1c2ccccc2cc2ccccc12)N1CCC(N2CCC[C@@H](C(=O)N3CCOCC3)C2)CC1` [CP-640186], the half-maximal inhibitory concentration (IC50) in the experiment on ACC2 and in the experiment on ACC1 was around 60 nM each time.
Regarding `Cc1c(-n2nccn2)sc2c1c(=O)n(C(C)(C)C(=O)NC(C)C)c(=O)n2CCc1cc(F)ccc1OCc1ccccc1` [Compound I-277], the IC90 in [1] (setting [5]) is above 50 µg/mL; in the experiment on Botrtyis cinerea (Bc) (setting [6]), above 50 µg/mL; in the experiment with Rhizoctonia solani (Rs) (setting [7]), above 50 µg/mL; in experiment [2] (setting [11]), 2 µg/mL (≈ 3.31 µM); in [3] (setting [12]), above 50 µg/mL; in [4], 2 µg/mL (≈ 3.31 µM). Besides, the IC90 with Diplodia maydis (Dm) (setting [13]) and in the experiment on Septoria tritici (St) (setting [14]) was above 50 µg/mL each time. For the same molecule, the IC50 against human (hACC2) was 10 to 40 nM; on fungal (fACC2), 1 to 5 nM. For the same molecule, the MIC in the experiment on C. albicans (setting [8]), with C. krusei (setting [9]) and with C. parapsilosis (setting [10]) was 1.01 to 2 µg/mL (≈ 1.67 to 3.31 µM) in each case.
Take `Cc1c(-n2nccn2)sc2c1c(=O)n(C(C)(C)C(=O)NC(C)C)c(=O)n2CCc1cc(F)ccc1CCCC#N` [Compound I-278]: the IC90 in [1] (setting [15]) was above 50 µg/mL; in the experiment on Botrtyis cinerea (Bc) (setting [16]), 2 µg/mL (≈ 3.54 µM); in the experiment on Rhizoctonia solani (Rs) (setting [17]), 10 µg/mL (≈ 17.7 µM); in experiment [2] (setting [21]) it was 0.4 µg/mL (≈ 0.707 µM); in [3] (setting [22]), 10 µg/mL (≈ 17.7 µM); in [4] (setting [23]), 0.4 µg/mL (≈ 0.707 µM). Moreover, the values for the IC90 with Diplodia maydis (Dm) (setting [24]) and with Septoria tritici (St) (setting [25]) were 2 µg/mL (≈ 3.54 µM) and above 50 µg/mL, respectively. In addition, the figures for the half-inhibitory concentration (IC50) on human (hACC2) and at fungal (fACC2) were 10 to 40 nM and 1 to 5 nM, respectively. The MIC was in the range of 2.01 to 4 µg/mL (≈ 3.55 to 7.07 µM) in the experiment with C. albicans (setting [18]), 1.01 to 2 µg/mL (≈ 1.79 to 3.54 µM) with C. krusei (setting [19]) and 2.01 to 4 µg/mL (≈ 3.55 to 7.07 µM) in the experiment with C. parapsilosis (setting [20]).
Take `Cc1c(-n2nccn2)sc2c1c(=O)n(C(C)(C)C(=O)NC(C)C)c(=O)n2CCc1cc(F)ccc1OC1CCOCC1` [Compound I-279]: the IC90 in experiment [1] (setting [15]) is above 50 µg/mL; with Botrtyis cinerea (Bc) (setting [16]) it was 2 µg/mL (≈ 3.34 µM); with Rhizoctonia solani (Rs) (setting [17]) it was 10 µg/mL (≈ 16.7 µM); in experiment [2] (setting [21]), 0.08 µg/mL (≈ 0.134 µM); in experiment [3] (setting [22]), 10 µg/mL (≈ 16.7 µM); in experiment [4] (setting [23]), 0.08 µg/mL (≈ 0.134 µM). Besides, the IC90 in the experiment with Diplodia maydis (Dm) (setting [24]) and in the experiment with Septoria tritici (St) (setting [25]) was above 50 µg/mL in each case. The IC50 on human (hACC2) lay in the range of 10 to 40 nM; on fungal (fACC2), 0.3 to 1 nM. The MIC in the experiment with C. albicans (setting [18]) lay within 2.01 to 4 µg/mL (≈ 3.36 to 6.68 µM); with C. krusei (setting [19]) it was 2.01 to 4 µg/mL (≈ 3.36 to 6.68 µM); in the experiment on C. parapsilosis (setting [20]), 1.01 to 2 µg/mL (≈ 1.69 to 3.34 µM).
Regarding `Cc1c(-n2nccn2)sc2c1c(=O)n(C(C)(C)C(=O)NC(C)C)c(=O)n2CCc1cc(F)ccc1OCCC#N` [Compound I-280], the IC90 is above 50 µg/mL in [1] (setting [5]); 10 µg/mL (≈ 17.6 µM) in the experiment with Botrtyis cinerea (Bc) (setting [6]); above 50 µg/mL with Rhizoctonia solani (Rs) (setting [7]); 2 µg/mL (≈ 3.52 µM) in experiment [2] (setting [11]); above 50 µg/mL in experiment [3] (setting [12]); 2 µg/mL (≈ 3.52 µM) in experiment [4]. Besides, the IC90 in the experiment with Diplodia maydis (Dm) (setting [13]) and in the experiment on Septoria tritici (St) (setting [14]) was above 50 µg/mL each time. In addition, the 50% inhibitory concentration (IC50) against human (hACC2) was 10 to 40 nM; on fungal (fACC2), 1 to 5 nM. In addition, the MIC in the experiment on C. albicans (setting [8]), in the experiment on C. krusei (setting [9]) and in the experiment on C. parapsilosis (setting [10]) was 1.01 to 2 µg/mL (≈ 1.78 to 3.52 µM) throughout.
Turning to `Cc1c(-n2nccn2)sc2c1c(=O)n(C(C)(C)C(=O)NC(C)C)c(=O)n2CCc1cc(F)ccc1OC(C)C` [Compound I-281], the IC90 in [1] (setting [15]) was above 50 µg/mL; with Botrtyis cinerea (Bc) (setting [16]), 2 µg/mL (≈ 3.59 µM); in the experiment on Rhizoctonia solani (Rs) (setting [17]) it was 10 µg/mL (≈ 18 µM); in experiment [2] (setting [21]), 0.08 µg/mL (≈ 0.144 µM); in [3] (setting [22]), 10 µg/mL (≈ 18 µM); in [4] (setting [23]) it was 0.08 µg/mL (≈ 0.144 µM). In addition, the IC90 is 2 µg/mL (≈ 3.59 µM) in the experiment with Diplodia maydis (Dm) (setting [24]) and above 50 µg/mL with Septoria tritici (St) (setting [25]). Besides, the values for the half-inhibitory concentration (IC50) against human (hACC2) and on fungal (fACC2) were 10 to 40 nM and 0.3 to 1 nM, respectively. Moreover, the MIC with C. albicans (setting [18]) was above 4.01 µg/mL; in the experiment with C. krusei (setting [19]), 1.01 to 2 µg/mL (≈ 1.81 to 3.59 µM); in the experiment on C. parapsilosis (setting [20]) it was 2.01 to 4 µg/mL (≈ 3.61 to 7.19 µM).
